# Results: patent US20250034216A1, “STEREOSELECTIVE COVALENT LIGANDS FOR ONCOGENIC AND IMMUNOLOGICAL PROTEINS” (The Scripps Research Institute, priority 2021, published 2025)
# Experiments:
# Test in all cases: IA-DTB cysteine engagement
# Format in all cases: binding
# Details in all cases: 22Rv1 cells, 20 μM probe, 1 h, relative to DMSO
# CENPC_C291 = target: T1, CENPC_C291 (Homo sapiens, UniProt Q03188)
# T1 construct: endogenous in cells; host or cells: 22Rv1
# How it was run: (§1)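 Probe-exposed cells were lysed, IA-DTB-labeled, trypsinized and streptavidin-enriched. Multiplexed TMT quantitation gave engagement ratios versus DMSO, with non-tryptic peptides excluded and intensities normalized to median summed signal.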
# SCAMP4_C20 = target: T2, SCAMP4_C20 (Homo sapiens, UniProt Q969E2)
# T2 construct: endogenous in cells; host or cells: 22Rv1
# T2 sequence (Q969E2 1-229): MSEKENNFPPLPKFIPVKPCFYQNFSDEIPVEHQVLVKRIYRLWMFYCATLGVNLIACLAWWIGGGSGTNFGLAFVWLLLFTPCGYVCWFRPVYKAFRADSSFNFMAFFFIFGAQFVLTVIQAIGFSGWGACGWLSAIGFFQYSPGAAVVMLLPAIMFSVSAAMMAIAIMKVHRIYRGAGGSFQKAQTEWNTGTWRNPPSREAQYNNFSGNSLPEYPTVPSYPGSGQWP
# How it was run: as §1
# TANC1_C800 = target: T3, TANC1_C800 (Homo sapiens, UniProt Q9C0D5)
# T3 construct: endogenous in cells; host or cells: 22Rv1
# T3 sequence (Q9C0D5 whole entry): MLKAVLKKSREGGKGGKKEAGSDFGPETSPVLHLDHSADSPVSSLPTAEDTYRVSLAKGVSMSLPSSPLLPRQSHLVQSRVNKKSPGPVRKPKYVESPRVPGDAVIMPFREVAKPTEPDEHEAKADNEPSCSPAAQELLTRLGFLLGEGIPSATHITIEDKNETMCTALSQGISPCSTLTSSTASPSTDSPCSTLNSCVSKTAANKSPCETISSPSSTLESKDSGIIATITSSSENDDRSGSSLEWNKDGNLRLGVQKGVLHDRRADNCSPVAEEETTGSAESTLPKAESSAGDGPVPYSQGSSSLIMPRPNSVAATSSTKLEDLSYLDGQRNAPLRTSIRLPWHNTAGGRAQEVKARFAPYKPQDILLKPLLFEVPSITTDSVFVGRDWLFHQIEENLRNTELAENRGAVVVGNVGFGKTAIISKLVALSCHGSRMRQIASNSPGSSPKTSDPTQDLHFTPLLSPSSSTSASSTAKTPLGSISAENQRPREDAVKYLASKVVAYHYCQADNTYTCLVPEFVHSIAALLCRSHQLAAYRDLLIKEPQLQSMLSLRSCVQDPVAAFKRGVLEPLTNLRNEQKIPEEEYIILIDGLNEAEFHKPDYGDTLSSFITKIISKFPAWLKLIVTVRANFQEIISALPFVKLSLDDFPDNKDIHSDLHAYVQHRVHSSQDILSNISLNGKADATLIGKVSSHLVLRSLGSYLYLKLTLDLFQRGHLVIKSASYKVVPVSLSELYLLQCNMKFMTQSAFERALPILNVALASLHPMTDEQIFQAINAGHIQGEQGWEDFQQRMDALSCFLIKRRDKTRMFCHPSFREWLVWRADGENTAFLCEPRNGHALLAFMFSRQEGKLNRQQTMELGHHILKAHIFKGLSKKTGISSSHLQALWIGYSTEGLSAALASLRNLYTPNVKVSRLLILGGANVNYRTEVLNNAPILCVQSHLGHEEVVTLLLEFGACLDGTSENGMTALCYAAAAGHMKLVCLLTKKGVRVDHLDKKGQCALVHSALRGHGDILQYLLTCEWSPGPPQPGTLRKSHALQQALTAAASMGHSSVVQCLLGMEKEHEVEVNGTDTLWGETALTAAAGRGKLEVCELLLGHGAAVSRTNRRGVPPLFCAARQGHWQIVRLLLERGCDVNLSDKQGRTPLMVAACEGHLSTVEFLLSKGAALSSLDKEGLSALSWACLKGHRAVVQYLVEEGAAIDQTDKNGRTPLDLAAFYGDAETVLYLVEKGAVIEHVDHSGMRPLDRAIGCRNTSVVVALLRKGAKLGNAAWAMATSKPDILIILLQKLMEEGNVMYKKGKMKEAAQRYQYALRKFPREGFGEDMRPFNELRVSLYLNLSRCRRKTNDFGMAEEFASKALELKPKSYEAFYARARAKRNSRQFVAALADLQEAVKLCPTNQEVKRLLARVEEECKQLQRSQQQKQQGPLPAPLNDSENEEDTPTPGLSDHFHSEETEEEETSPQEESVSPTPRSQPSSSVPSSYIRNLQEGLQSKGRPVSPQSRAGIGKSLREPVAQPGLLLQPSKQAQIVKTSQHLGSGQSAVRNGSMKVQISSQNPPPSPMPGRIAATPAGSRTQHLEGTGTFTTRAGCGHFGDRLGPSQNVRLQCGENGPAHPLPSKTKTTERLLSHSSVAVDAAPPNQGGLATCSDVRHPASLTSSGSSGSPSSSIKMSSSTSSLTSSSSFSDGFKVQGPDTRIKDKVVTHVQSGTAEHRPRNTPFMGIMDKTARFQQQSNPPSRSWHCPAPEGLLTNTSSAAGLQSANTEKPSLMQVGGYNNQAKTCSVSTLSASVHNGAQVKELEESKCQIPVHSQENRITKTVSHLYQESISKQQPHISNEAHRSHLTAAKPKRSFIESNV
# How it was run: as §1
# T1 sequence (Q03188 whole entry): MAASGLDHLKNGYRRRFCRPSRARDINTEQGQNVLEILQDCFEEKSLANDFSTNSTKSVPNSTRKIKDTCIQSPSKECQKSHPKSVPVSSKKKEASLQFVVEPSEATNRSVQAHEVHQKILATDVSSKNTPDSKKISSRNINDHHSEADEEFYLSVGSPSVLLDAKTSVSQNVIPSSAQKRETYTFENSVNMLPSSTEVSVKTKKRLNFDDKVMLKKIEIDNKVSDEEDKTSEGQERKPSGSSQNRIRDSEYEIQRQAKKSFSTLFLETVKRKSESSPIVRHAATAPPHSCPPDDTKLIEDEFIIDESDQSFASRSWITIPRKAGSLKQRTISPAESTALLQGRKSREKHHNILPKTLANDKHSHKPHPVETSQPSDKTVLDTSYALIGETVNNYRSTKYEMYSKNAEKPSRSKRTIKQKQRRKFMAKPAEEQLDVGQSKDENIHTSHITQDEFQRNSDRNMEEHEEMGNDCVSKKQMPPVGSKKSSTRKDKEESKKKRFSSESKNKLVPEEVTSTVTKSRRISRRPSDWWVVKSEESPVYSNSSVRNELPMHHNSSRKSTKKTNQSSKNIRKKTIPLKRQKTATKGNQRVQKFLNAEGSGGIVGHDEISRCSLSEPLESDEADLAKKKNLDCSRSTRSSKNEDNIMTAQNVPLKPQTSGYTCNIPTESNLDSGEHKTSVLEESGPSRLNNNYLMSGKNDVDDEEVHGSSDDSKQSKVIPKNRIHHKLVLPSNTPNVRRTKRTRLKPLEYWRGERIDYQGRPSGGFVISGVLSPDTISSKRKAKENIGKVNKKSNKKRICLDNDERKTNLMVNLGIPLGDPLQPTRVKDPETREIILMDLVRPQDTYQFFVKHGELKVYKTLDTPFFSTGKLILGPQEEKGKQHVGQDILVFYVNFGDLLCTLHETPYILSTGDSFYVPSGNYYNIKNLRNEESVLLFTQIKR
SMILES,% engagement CENPC_C291 (CENPC_C291),% engagement SCAMP4_C20 (SCAMP4_C20),% engagement TANC1_C800 (TANC1_C800)
"C=CC(=O)N1C[C@H](c2ccc(Br)cc2)[C@H]1C(=O)Nc1cccc2cccnc12 [MY-3A, (2S,3S)-1-acryloyl-3-(4-bromophenyl)-N-(quinolin-8-yl)azetidine-2-carboxamide]",28%,72.5%,12.5%
"C=CC(=O)N1C[C@@H](c2ccc(Br)cc2)[C@H]1C(=O)Nc1cccc2cccnc12 [MY-1A, (2S,3R)-1-acryloyl-3-(4-bromophenyl)-N-(quinolin-8-yl)azetidine-2-carboxamide]",−1.5%,80%,−2%
"C=CC(=O)N1C[C@H](c2ccc(Br)cc2)[C@@H]1C(=O)Nc1cccc2cccnc12 [MY-1B, (2R,3S)-1-acryloyl-3-(4-bromophenyl)-N-(quinolin-8-yl)azetidine-2-carboxamide]",7%,85.5%,3%
"C=CC(=O)N1C[C@H](c2ccc(Br)cc2)[C@H]1C(=O)Nc1cccc2cccnc12 [MY-3B, (2S,3S)-1-acryloyl-3-(4-bromophenyl)-N-(quinolin-8-yl)azetidine-2-carboxamide]",82.5%,100%,83.5%
